Experimental data taken from ChEMBL document CHEMBL4385652, “Discovery of a novel orally active TRPV4 inhibitor: Part 1. Optimization from an HTS hit” (Bioorg Med Chem, 2019).

How the values were obtained:
physchem = conditions: 1-octanol/phosphate buffer, pH 7.4
in vitro [1] = conditions: rat, pooled liver microsomes
in vitro [2] = conditions: human, pooled liver microsomes

Row | SMILES | logD (physchem) | CLint scaled at 0.75 h, 0.2 µM (in vitro [1]) [mL/min/kg] | CLint scaled at 0.75 h, 0.2 µM (in vitro [2]) [mL/min/kg]
1 | COc1cc(OC)cc(C(=O)Nc2nc(C3CC3)c(N3CCN(C)CC3)s2)c1 | 4 | – | –
2 | COc1cc(OC)cc(C(=O)Nc2nc(-c3cccnc3)c(N3CCN(C)CC3)s2)c1 | 4.1 | – | –
3 | COc1cc(OC)cc(C(=O)Nc2nc(C3CCC3)c(N3CCN(C)CC3)s2)c1 | 4.6 | – | –
4 | COc1cc(OC)cc(C(=O)Nc2nc(-c3ccccc3)c(CCCN3CCN(C)CC3)s2)c1 | 4.1 | – | –
5 | COc1cc(OC)cc(C(=O)Nc2nc(-c3ccncc3)c(N3CCN(C)CC3)s2)c1 | 4.1 | – | –
6 | Cc1c(C(=O)Nc2nc(C3CCC3)c(CCN3CCCCC3)s2)cnn1-c1ccc(F)cc1 | 4.1 | > 1000 | 527
7 | Cc1c(C(=O)Nc2nc(C3CCC3)c(N3CCN(C)CC3)s2)cnn1-c1ccc(F)cc1 | 4.8 | – | –
8 | COc1cc(OC)cc(C(=O)Nc2nc(-c3ccccc3)c(CN3CCCCC3)s2)c1 | 4.9 | – | –
9 | CN1CCN(c2sc(NC(=O)c3cc(-c4ccccc4)n(C)n3)nc2C2CCC2)CC1 | 4.9 | – | –
10 | Cc1nn(-c2ccc(F)cn2)cc1C(=O)Nc1nc(C2CCC2)c(CCN2CCCCC2)s1 | 4.5 | 798 | 120
11 | COc1cc(OC)cc(C(=O)Nc2nc(-c3ccccc3)c(CCCN3CCOCC3)s2)c1 | 4.7 | – | –
12 | Cc1c(C(=O)Nc2nc(C3CCC3)c(N3CCN(C)CC3)s2)cnn1-c1ccc(C#N)cc1 | 4 | – | –
13 | Cc1c(C(=O)Nc2nc(C3CCC3)c(N3CCN(C)CC3)s2)cnn1C1CCC(F)(F)CC1 | 4.3 | – | –
14 | COc1cc(OC)cc(C(=O)Nc2nc(-c3ccccn3)c(N3CCN(C)CC3)s2)c1 | 3.7 | – | –
15 | COc1cc(OC)cc(C(=O)Nc2nc(-c3ccccc3)c(C3CCN(C)CC3)s2)c1 | 3.6 | – | –
16 | COc1cc(OC)cc(C(=O)Nc2nc(-c3ccccc3)c(CCCN(C)C)s2)c1 | 3.5 | – | –
17 | COc1cc(OC)cc(C(=O)Nc2nc(-c3ccccc3)c(CCCN3CCCCC3)s2)c1 | 4.1 | – | –
